Measurements reported in patent publication US9370182B2, “Antimicrobial peptide and use thereof” (TOAGOSEI CO., LTD., priority 2012, dated 2016).
Where no end group is shown, it is not given here.

Assays:
Assay type in all cases: cell-based
E. coli (NIH-JC2) = conditions: for Antimicrobial activities (MIC in μM) E. coli: NIH-JC2, 24 h
Protocol: (§1) The two bacterial strains (S. aureus, E. coli) were subcultured from storage media to agar plate media (“Mueller Hinton Agar” available from DIFCO), then inoculated into liquid media (“Mueller Hinton broth II” available from DIFCO) and cultured at 30° C. or 37° C. for 24 hours. Subsequently, the aforementioned medium was added to the culture media to dilute and prepare inocula at bacterial concentrations of 2×10^5 cells/mL.
(§2) Antimicrobial activity tests were conducted as follows.
(§3) The peptide-containing solutions prepared to the respective concentrations were aliquoted into 96-well microplates at 20 μL per well. In test sections against the fungus, 80 μL of the MOPS-buffered RPMI1640 medium was added to each well. In test sections against the bacteria, 80 μL of the liquid medium (Mueller Hinton broth II) was added to each well.
(§4) Subsequently, 100 μL of one of the inocula was added to each well and incubation was started in an incubator at 30° C. or 37° C. After 24 hours, the multiplication (growth) of the microorganisms was analyzed by measurements of turbidity (OD600).

S. aureus (209P) = conditions: for Antimicrobial activities (MIC in μM) S. aureus: 209P, 24 h
Protocol: as §1, §2, §3, §4

C. albicans (NBRC-1594) = conditions: for Antimicrobial activities (MIC in μM) C. albicans: NBRC-1594, 24 h
Protocol: On the other hand, with respect to the one fungus strain (C. albicans), the surface of a slant culture was washed with a physiological saline containing 0.1% Tween® 80 to prepare a conidial suspension. The suspension was filtered with a Falcon® cell strainer and diluted with a MOPS-buffered RPMI1640 medium to prepare an inoculum at a fungus concentration of 2×10^4 cells/mL.
as §2, §3, §4

[1] = summary of Table 2, all microorganism strains

MLPSLALLLLAAWTVRA [Sample 2]
Antimicrobial activities (MIC in μM) E. coli (E. coli (NIH-JC2)): 32 µM
Antimicrobial activities (MIC in μM) S. aureus (S. aureus (209P)): 16 µM
Antimicrobial activities (MIC in μM) C. albicans (C. albicans (NBRC-1594)): 32 µM

MGPASPAARGLSRRPGQPPLPLLLPLLLLLLRAQPAIG [Sample 3]
Antimicrobial activities (MIC in μM) E. coli (E. coli (NIH-JC2)): 16 µM
Antimicrobial activities (MIC in μM) S. aureus (S. aureus (209P)): 4 µM
Antimicrobial activities (MIC in μM) C. albicans (C. albicans (NBRC-1594)): 16 µM

MAATGTAAAAATGRLLLLLLVGLTAPALA [Sample 5]
Antimicrobial activities (MIC in μM) E. coli (E. coli (NIH-JC2)): 16 µM
Antimicrobial activities (MIC in μM) S. aureus (S. aureus (209P)): 8 µM
Antimicrobial activities (MIC in μM) C. albicans (C. albicans (NBRC-1594)): 16 µM

MLPGLALLLLAAWTARA [Sample 1]
Antimicrobial activities (MIC in μM) E. coli (E. coli (NIH-JC2)): 32 µM
Antimicrobial activities (MIC in μM) S. aureus (S. aureus (209P)): 16 µM
Antimicrobial activities (MIC in μM) C. albicans (C. albicans (NBRC-1594)): 32 µM

TLHQQCIRVLKNNID [Sample 7, reference compound]
Antimicrobial activities (MIC in μM) E. coli (E. coli (NIH-JC2)): >256 µM
Antimicrobial activity in words, E. coli (E. coli (NIH-JC2); [1]): no antimicrobial activities were observed
Antimicrobial activities (MIC in μM) S. aureus (S. aureus (209P)): >256 µM
Antimicrobial activity in words, S. aureus (S. aureus (209P); [1]): no antimicrobial activities were observed
Antimicrobial activities (MIC in μM) C. albicans (C. albicans (NBRC-1594)): >256 µM
Antimicrobial activity in words, C. albicans (C. albicans (NBRC-1594); [1]): no antimicrobial activities were observed

MGPTSPAARGQGRRWRPPLPLLLPLSLLLLRAQLAVG [Sample 4]
Antimicrobial activities (MIC in μM) E. coli (E. coli (NIH-JC2)): 16 µM
Antimicrobial activities (MIC in μM) S. aureus (S. aureus (209P)): 4 µM
Antimicrobial activities (MIC in μM) C. albicans (C. albicans (NBRC-1594)): 16 µM

MAATGTAAAAATGKLLVLLLLGLTAPAAA [Sample 6]
Antimicrobial activities (MIC in μM) E. coli (E. coli (NIH-JC2)): 16 µM
Antimicrobial activities (MIC in μM) S. aureus (S. aureus (209P)): 8 µM
Antimicrobial activities (MIC in μM) C. albicans (C. albicans (NBRC-1594)): 16 µM
